This is an account of results in patent publication EP0614887B1, “Indole-sulfonamides as antitumor agents” (ELI LILLY AND COMPANY, priority 1993, dated 1994).

Series [1] concerns VRC5 human colon adenocarcinomas. As to the kind of experiment: Antitumor activity in mice bearing human colon xenograft VRC5, oral dosing. Format: in vivo, CD1 Nu/Nu mice. Conditions: VRC5 tumor, daily for 10 days; for Percent Inhibition: inhibition of tumor growth vs control; for Toxic/Total: mice which died / total animals in group. An excerpt: One of the tumor models used for showing the anti-neoplastic activity of the sulfonylureas of this invention was the human colon xenograft VRC5. J.A. Houghton and D.M. Taylor, British Journal of Cancer, 37:213-223 (1978). This tumor was obtained from St. Jude's Children's Research Hospital and has been widely used as a human tumor model.
(§1) First passage tumors were stored in liquid nitrogen, using standard techniques. The transplanted tumor was reestablished from the Tumor Bank every six months or as needed. The tumor was maintained by serial passage twice weekly in the host mice.
(§2) In the procedures utilized here, the tumor was removed from passage animals and minced into cubic fragments having 1 to 3 mm edges using sterile techniques. Tumor pieces were checked for sterility using both Antibiotic Medium 1 and Brain Heart Infusion (Difco, Detroit, Michigan). The xenograft tumor pieces were implanted into the recipient CD1 Nu/Nu mice subcutaneously in an axillary site by trochar. The allograft 6C3HED tumor pieces were implanted into the recipient C3H mice in an analogous fashion.
(§3) Drug therapy on the appropriate schedule was initiated seven days after tumor implantation for the mice bearing the xenograft tumors, one day after implantation for the mice bearing the 6C3HED lymphosarcoma. The compound being tested was mixed with 2.5% Emulphor EL620 from GAF Corporation (1:40 dilution in 0.9% saline). The total dosage volume for each administration was 0.5 ml. All animals were weighed at the beginning and end of administration of the subject compounds. Food and water were provided ad libitum.
(§4) Each control group and each dosage level of the treated groups consisted of 9 or 10 mice selected at random from the pool of implanted animals. The formulations were administered orally by gavage with the use of an 18-gauge needle. Compounds were dosed daily for 10 days for the studies using the human tumor xenografts and 8 days for the studies using the allograft.
(§5) The tumor was measured five days after treatment ended with two dimensional measurements (width and length) of the tumor taken using digital electronic calipers interfaced to a microcomputer. J.F. Worzalla, et al., Investigational New Drugs, 8:241-251 (1990). Tumor weights were calculated from these measurements using the following formula: Tumor weight (mg) =[…] [formula] At least one control group of an equal number of mice was treated with the same volume of 2.5% Emulphor only. The percent inhibition is determined by subtracting the ratio of the mean tumor size of the test group relative to the control group from one and multiplying the result by 100.
(§6) The results of several experiments in mice bearing the VRC5 human colon adenocarcinomas, and the 6C3HED lymphosarcoma when the Formula I compounds were administered orally are provided in Table I. In the table, Column 1 refers to the example number of the compound tested; Column 2 describes the particular human tumor xenograft or mouse allograft being studied; Column 3 gives the dosage level of the compound of Formula I in milligrams per kilogram of body weight; Column 4 describes the percent inhibition of tumor growth; and Column 5 tallies the number of mice which died during the course of the experiment relative to the total number of animals in the group.

In series [2] the test system is 6C3HED lymphosarcoma. In words: Antitumor activity in mice bearing allograft 6C3HED lymphosarcoma, oral dosing. Type of series: in vivo, C3H mice. Conditions: 6C3HED tumor, daily for 8 days; for Percent Inhibition: inhibition of tumor growth vs control; for Toxic/Total: mice which died / total animals in group.
From the text: Another tumor model employed C3H mice bearing the widely used allograft 6C3HED lymphosarcoma, also known as the Gardner lymphosarcoma (GLS). The 6C3HED lymphosarcoma was obtained from the Division of Cancer Treatment, National Cancer Institute, Tumor Bank, maintained at E. G. and G. Mason Research (Worcester, Massachusetts).
as §1, §2, §3, §4, §5, §6

Regarding “N-[[(3,4-dichlorophenyl)amino]carbonyl]-1-methyl-1H-indole-5-sulfonamide [Example 3]”, the figures for the “Percent Inhibition” value in series [1] (20 mg/kg orally by gavage), in series [1] (40 mg/kg orally by gavage) and in series [1] (80 mg/kg orally by gavage) were 81%, 95% and 100%, respectively. The Toxic/Total is listed as 1/9 in series [1] (20 mg/kg orally), 1/10 in series [1] (40 mg/kg orally) and 0/10 in series [1] (80 mg/kg orally).
With `O=C(Nc1ccc(Cl)c(Cl)c1)NS(=O)(=O)c1ccc2c(c1)CCN2` [Example 2, N-[[(3,4-dichlorophenyl)amino]carbonyl]-2,3-dihydro-1H-indole-5-sulfonamide], the “Percent Inhibition” value in series [2] (450 mg/kg orally by gavage) is reported as 100%; in series [2] (900 mg/kg orally by gavage) it was 100%; in series [1] (20 mg/kg orally by gavage), 18%; in series [1] (40 mg/kg orally by gavage), 56%. Also, the Toxic/Total in series [2] (450 mg/kg orally) was 0/10; in series [2] (900 mg/kg orally), 1/10; in series [1] (20 mg/kg orally), 0/9; in series [1] (40 mg/kg orally), 0/9.
As for `O=C(Nc1ccc(Cl)cc1)NS(=O)(=O)c1ccc2c(c1)CCN2` [Example 1, N-[[(4-chlorophenyl)amino]carbonyl]-2,3-dihydro-1H-indole-5-sulfonamide], the “Percent Inhibition” value in series [2] (280 mg/kg orally by gavage) is recorded as 44%. For the same compound, the Toxic/Total in series [2] (280 mg/kg orally) was 0/9.
